Experiments:
[1] = target: T1, Human sEH Cterm-EH activity (Homo sapiens, UniProt P34913); experiment: Cterm-EH inhibition IC50 with 4-nitrophenyl-trans-2,3-epoxy-3-phenylpropyl carbonate; type: biochemical; details: substrate 50 μM, 5 min preincubation, 30° C.; read-out: IC50
T1 construct: use of a truncated enzyme from crude extract versus purified full-length human sEH; made in house; host or cells: baculovirus expression system (insect cells)
T1 sequence (P34913 1-555): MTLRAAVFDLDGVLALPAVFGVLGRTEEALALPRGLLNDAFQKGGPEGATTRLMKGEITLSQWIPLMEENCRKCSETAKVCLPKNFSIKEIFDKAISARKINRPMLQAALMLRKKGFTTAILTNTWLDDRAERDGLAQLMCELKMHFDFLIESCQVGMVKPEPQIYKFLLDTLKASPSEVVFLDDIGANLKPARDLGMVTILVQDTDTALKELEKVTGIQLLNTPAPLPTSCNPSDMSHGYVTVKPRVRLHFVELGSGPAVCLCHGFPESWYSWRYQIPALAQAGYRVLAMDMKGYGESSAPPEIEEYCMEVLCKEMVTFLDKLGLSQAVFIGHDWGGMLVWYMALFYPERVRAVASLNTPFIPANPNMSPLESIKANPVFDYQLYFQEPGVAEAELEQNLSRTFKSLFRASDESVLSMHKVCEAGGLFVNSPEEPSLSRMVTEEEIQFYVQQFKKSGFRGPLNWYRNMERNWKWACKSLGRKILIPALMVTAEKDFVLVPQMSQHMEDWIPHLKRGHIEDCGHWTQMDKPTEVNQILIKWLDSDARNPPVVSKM

[2] = target: T1, Human sEH Cterm-EH activity; experiment: Cterm-EH dissociation constant with [3H]-trans-1,3-diphenylpropene oxide; type: biochemical
Experimental: For the Cterm-EH activity, dissociation constants were determined using racemic [^3H]-trans-1,3-diphenylpropene oxide as substrate. […] Velocity was measured as described (Borhan et al., Anal. Biochem. 231, 188-200 (1995)). […] Results are mean±standard deviation of three separate determination of KI.

full length human sEH = target: T2, full length human sEH (Homo sapiens, UniProt P34913); experiment: EH activity inhibition, full length human sEH; type: biochemical
T2 construct: use of a truncated enzyme from crude extract versus purified full-length human sEH; made in house; host or cells: baculovirus expression system (insect cells)
T2 sequence (P34913 1-555): T1 sequence (P34913 1-555)
Experimental: Nterm-Phos activity was measured in Bis-Tris HCl buffer (25 mM PH 7.0) containing 0.1 mg/mL of Fraction V BSA and 1 mM of MgCl2 (buffer A) at 30° C. […] APHP activity was measured as described using 7 as substrate (Newman et al., Proc. Natl. Acad. Sci. USA. 100, 1558-1563 (2003)). Compounds 34-37 were incubated separately with the enzyme for a given time, and then the reaction was stopped by the addition of 100 μL of methanol. The reaction products for compounds 34-37 were extracted with 500 μL of ethyl acetate. The quantification of the alcohol products was performed by LC/MS analysis of 2 μL of the organic phase. The Cterm-EH activity was measured as described previously in buffer A, using either racemic 4-nitrophenyl-trans-2,3-epoxy-3-phenylpropyl carbonate (Dietze et al., Anal. Biochem. 216, 176-187 (1994)) or racemic [^3H]-trans-1,3-diphenylpropene oxide as substrate (Borhan et al., Anal. Biochem. 231, 188-200 (1995)). This latter substrate was also used to measure the activity of the cress sEH and the truncated human sEH.

truncated human sEH = target: T3, truncated human sEH (Homo sapiens, UniProt P34913); experiment: EH activity inhibition, N-terminally truncated human sEH; type: biochemical
T3 construct: C-terminal region (Mel^237-Met^554) of human sEH was amplified by PCR; made in house; host or cells: baculovirus (pFastBac1) in high-5 Trichoplusia ni cells; 10,000 g supernatant used as crude extract
T3 sequence (P34913 237-555 limits assumed): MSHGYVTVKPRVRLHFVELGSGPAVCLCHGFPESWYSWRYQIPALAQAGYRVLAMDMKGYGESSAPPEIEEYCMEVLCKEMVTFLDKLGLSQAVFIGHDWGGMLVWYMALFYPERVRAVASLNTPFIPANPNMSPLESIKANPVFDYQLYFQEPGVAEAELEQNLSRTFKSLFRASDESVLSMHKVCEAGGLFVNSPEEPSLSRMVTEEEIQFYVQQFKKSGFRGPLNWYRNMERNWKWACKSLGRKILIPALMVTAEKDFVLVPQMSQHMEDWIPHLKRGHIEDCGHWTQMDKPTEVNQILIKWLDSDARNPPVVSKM
Source text: (§1) Recombinant human sEH (HsEH) was produced in a baculovirus expression system (Beetham et al., Arch. Biochem. Biophys. 305, 197-201 (1993)) and purified by affinity chromatography (Wixtrom et al., Anal. Biochem. 169, 71-80 (1983)). […] No detectable esterase or glutathione transferase activities were observed. Recombinant mouse-eared cress sEH was produced in a baculovirus expression system and purified as described (Morisseau et al., Arch. Biochem. Biophys. 378, 321-332 (2000)). The nucleotide sequence of the C-terminal region (Mel^[…]) of human sEH was amplified by PCR using [NT] as forward primer and [NT] as reverse primer. The resulting band was gel purified and restricted with EcoR1 and Sal1, which were introduced by the primers, and the restricted fragment sub-cloned into the multiple cloning site of the pFastBac1 vector (Invitrogen). After verification of the obtained nucleotide sequence, the recombinant pFastBac1 plasmid was introduced in competent DH10bac cells leading to the formation of a recombinant plasmid containing the DNA insert. The isolated recombinant plasmid was used to produce recombinant baculovirus in Sf21 cells following procedures recommended by the manufacturer. The truncated HsEH was produced in high-5 Trichloplusia ni cell cultures following published procedures (Beetham et al., Arch. Biochem. Biophys. 305, 197-201 (1993)). Seventy-two hours post infection, the cells were collected by centrifugation (2,000 g×20 min). The cell pellet was then suspended in a sodium phosphate buffer (76 mM, pH 7.4) containing 1 mM of phenylmethylsulfonyl fluoride, EDTA and dithiothretol. The suspension was then homogenized by Polytron at 9,000 rpm for 1 min and centrifuged (10,000 g×20 min). The resulting supernatant was frozen at -80° C. until used for experiments. […] Protein concentrations were quantified with the Pierce BCA assay (Pierce; Rockford, Ill.) using Fraction V bovine serum albumin (BSA) as the calibrating standard. Nterm-Phos activity was measured in Bis-Tris HCl buffer (25 mM PH 7.0) containing 0.1 mg/mL of Fraction V BSA and 1 mM of MgCl2 (buffer A) at 30° C. […] APHP activity was measured as described using 7 as substrate (Newman et al., Proc. Natl. Acad. Sci. USA. 100, 1558-1563 (2003)). Compounds 34-37 were incubated separately with the enzyme for a given time, and then the reaction was stopped by the addition of 100 μL of methanol. The reaction products for compounds 34-37 were extracted with 500 μL of ethyl acetate. The quantification of the alcohol products was performed by LC/MS analysis of 2 μL of the organic phase. […] Biochem. 231, 188-200 (1995)). This latter substrate was also used to measure the activity of the cress sEH and the truncated human sEH.

cress sEH = experiment: EH activity inhibition, cress sEH; type: biochemical, mouse-eared cress
Source text: as §1

Nterm-phos = target: T4, Nterm-phos (Homo sapiens, UniProt P34913); experiment: Sulfates tested as substrates for Nterm-phos (LC-MS of alcohol or diol); type: biochemical; details: enzyme 400 nM, compound 100 μM, one hour
T4 construct: use of a truncated enzyme from crude extract versus purified full-length human sEH; made in house; host or cells: baculovirus expression system (insect cells)
T4 sequence (P34913 1-555): T1 sequence (P34913 1-555)
Experimental: To understand the mode of action of these new inhibitors, compounds 1 and 2 were tested as substrates for the Nterm-phos. Enzyme was incubated (400 nM) with the compounds (100 μM) for an hour and analyzed the mixture by LC-MS to detect any alcohol or diol formed (Newman et al., Proc. Natl. Acad. Sci. USA. 100, 1558-1563 (2003)). Formation of any alcohol or diol was not detected.

SMILES	IC50 [1] [µM]	KI at Cterm-EH relative to KI at Nterm-Phos [2]	Ki ([2]; non-competitive inhibition, n=3) [µM]	inhibition at 100 µM (full length human sEH) [%]	inhibition at 100 µM (truncated human sEH) [%]	Formation of any alcohol or diol (Nterm-phos)	Inhibition at 100 μM (%) (cress sEH)
CCCCCCCCC(CCCCCCCCC(=O)O)OS(=O)(=O)O (stereo not drawn) [Compound 1, 10-Sulfonooxy-octadecanoic acid]	28 ± 2	roughly 100 fold	31 ± 2	86 ± 2	89 ± 3	not detected	<2
CCCCCCCCC(OS(=O)(=O)O)C(O)CCCCCCCC(=O)O (stereo not drawn) [Compound 2, 9/10-Sulfonooxy-hydroxy-octadecanoic acid]	90 ± 5			54 ± 3	58 ± 2	not detected	<2
CCCCCCCCCC(CCCCCCCC)OS(=O)(=O)O (stereo not drawn) [Compound 3, 9-Octadecanyl-sulfate]	21 ± 5			72 ± 2	67 ± 3		<2

Further lines, with some results ahead:

IC50 [1] [µM]	KI at Cterm-EH relative to KI at Nterm-Phos [2]	Ki ([2]; non-competitive inhibition, n=3) [µM]	inhibition at 100 µM (full length human sEH) [%]	inhibition at 100 µM (truncated human sEH) [%]	Formation of any alcohol or diol (Nterm-phos)	SMILES	Inhibition at 100 μM (%) (cress sEH)
> 100			26 ± 3	16 ± 2		CCCCCCC(C/C=C\CCCCCCCC(=O)O)OS(=O)(=O)O (stereo not drawn) [Compound 4, 12-Sulfonoxy-cis-9-octadecenoic acid]	<2
16 ± 3			68 ± 2	44 ± 4		CCCCCCC(C/C=C/CCCCCCCC(=O)O)OS(=O)(=O)O (stereo not drawn) [Compound 5, 12-Sulfonoxy-trans-9-octadecenoic acid]	<2

Reference: patent US20090215894A1, “INHIBITION OF PHOSPHATASE ACTIVITY OF SOLUBLE EPOXIDE HYDROLASE AMINO TERMINUS AND USES THEREOF” (REGENTS OF THE UNIVERSITY OF CALIFORNIA, priority 2005, published 2009)
